Assay results: patent publication US6362211B1, “Polycyclic indanylimidazoles with alpha2 adrenergic activity” (Orion Corporation, priority 2000, dated 2002)

Tested on: Alpha2 Adrenoceptors (alpha2AR)
Test: Antagonist activity on alpha2 adrenoceptors in rat vas deferens in vitro (electrically evoked twitch response)
Format: cell-based
Conditions: isolated rat vas deferens, field stimulation; antagonist given at least five minutes before alpha2AR agonist
Protocol: Antagonist Activity on Alpha2 Adrenoceptors (alpha2AR) in Rat Vas Deferens in Vitro
Rats were killed by CO2-suffocation. Vas deferentia were dissected out and both prostatic halves were removed to tissue chambers containing Krebs-solution of the following composition (mM): NaCl 118, KCl 4.7, CaCl2 2.5, KH2PO4 1.2, MgSO4 0.6, NaHCO3 25, glucose 11.1, aerated by 5% carbogen, temperature 37° C., pH 7.4. Propranolol […] and desipramine […] were added to prevent the possible effects on […] receptors and to prevent re-uptake of released norepinephrine, respectively. Preparations were tied to the bottom hooks of the incubation chambers and the to isometric force-displacement transducers above. Electrical stimulation was started after the equilibrium period/5 minutes under a resting tension of 0.5 g) by introducing field stimulation with the following parameters: twin-pulses, voltage 70 V, frequency 0.2 Hz, delay 5 ms, duration 2 ms. […] Inhibition of the electrically evoked contractions was measured as the response to alpha2AR agonists. Antagonist was administered into the incubation medium at least five minutes before agonist. Means±SEM of percentage inhibition were calculated in the absence and in the presence of antagonist and expressed as dose-response curves. In order to express the antagonist potency, pA2-value was calculated.

Compound	Vas deferens Alpha2 antagonistic activity, pA2
c1ccc2c(c1)CC1(c3c[nH]cn3)CCCCC21 (stereo not shown) [3(i), 4-(4b,5,6,7,8,9-Hexahydrofluoren-8a-yl)-1H-imidazole]	pA2 = 8.2
c1ccc2c(c1)CC1(c3c[nH]cn3)Cc3ccccc3C21 (stereo not shown) [Example 8, 4-(4b,10-Dihydro-9H-indeno[1,2-a]inden-9a-yl)-1H-imidazole]	pA2 = 7.4
c1ccc2c(c1)CC1(c3c[nH]cn3)CCCC21 (stereo not shown) [Example 1(e), 4-(2,3,3a,8-Tetrahydro-1H-cyclopenta[a]inden-8a-yl)-1H-imidazole]	pA2 = 8.4
Fc1ccc2c(c1)C1CCCCC1(c1c[nH]cn1)C2 (stereo not shown) [Example 4, 4-(3-Fluoro-4b,5,6,7,8,9-hexahydrofluoren-8a-yl)-1H-imidazole]	pA2 = 7.4
Oc1ccc2c(c1)C1CCCCC1(c1c[nH]cn1)C2 (stereo not shown) [Example 5(b), 8a-(1H-Imidazol-4-yl)-5,6,7,8,8a,9-hexahydro-4bH-fluoren-3-ol]	pA2 = 7.7
C=C1CCC2(c3c[nH]cn3)Cc3ccccc3C12 (stereo not shown) [2(a), 4-(3-Methylene-2,3,3a,8-tetrahydro-1H-cyclopenta[a]inden-8a-yl)-1H-imidazole]	pA2 = 7.8
c1ccc2c(c1)CC1(c3c[nH]cn3)C3CCC(CC3)C21 (stereo not shown) [Example 7(f), 4-(5,8-Ethano-4b,5,6,7,8,9-hexahydro-fluoren-8a-yl)-1H-imidazole]	pA2 = 5.3
COc1ccc2c(c1)C1CCCCC1(c1c[nH]cn1)C2 (stereo not shown) [Example 5(a), 4-(3-Methoxy-4b,5,6,7,8,9-hexahydrofluoren-8a-yl)-1H-imidazole]	pA2 = 6.9
CC1CCC2(c3c[nH]cn3)Cc3ccccc3C12 (stereo not shown) [Example 2(b), 4-(3-Methyl-2,3,3a,8-tetrahydro-1H-cyclopenta[a]inden-8a-yl)-1H-imidazole]	pA2 = 7.4
OCCOCCOc1ccc2c(c1)C1CCCCC1(c1c[nH]cn1)C2 (stereo not shown) [Example 6, 2-{2-[8a-(1H-Imidazol-4-yl)-5,6,7,8,8a,9-hexahydro-4bH-fluoren-3-yloxy]-ethoxy}-ethanol]	pA2 = 6.0
